The target of series [1] is T1, Protein deacetylase HDAC6 (Homo sapiens, UniProt Q9UBN7).
T1 sequence (Q9UBN7 whole entry): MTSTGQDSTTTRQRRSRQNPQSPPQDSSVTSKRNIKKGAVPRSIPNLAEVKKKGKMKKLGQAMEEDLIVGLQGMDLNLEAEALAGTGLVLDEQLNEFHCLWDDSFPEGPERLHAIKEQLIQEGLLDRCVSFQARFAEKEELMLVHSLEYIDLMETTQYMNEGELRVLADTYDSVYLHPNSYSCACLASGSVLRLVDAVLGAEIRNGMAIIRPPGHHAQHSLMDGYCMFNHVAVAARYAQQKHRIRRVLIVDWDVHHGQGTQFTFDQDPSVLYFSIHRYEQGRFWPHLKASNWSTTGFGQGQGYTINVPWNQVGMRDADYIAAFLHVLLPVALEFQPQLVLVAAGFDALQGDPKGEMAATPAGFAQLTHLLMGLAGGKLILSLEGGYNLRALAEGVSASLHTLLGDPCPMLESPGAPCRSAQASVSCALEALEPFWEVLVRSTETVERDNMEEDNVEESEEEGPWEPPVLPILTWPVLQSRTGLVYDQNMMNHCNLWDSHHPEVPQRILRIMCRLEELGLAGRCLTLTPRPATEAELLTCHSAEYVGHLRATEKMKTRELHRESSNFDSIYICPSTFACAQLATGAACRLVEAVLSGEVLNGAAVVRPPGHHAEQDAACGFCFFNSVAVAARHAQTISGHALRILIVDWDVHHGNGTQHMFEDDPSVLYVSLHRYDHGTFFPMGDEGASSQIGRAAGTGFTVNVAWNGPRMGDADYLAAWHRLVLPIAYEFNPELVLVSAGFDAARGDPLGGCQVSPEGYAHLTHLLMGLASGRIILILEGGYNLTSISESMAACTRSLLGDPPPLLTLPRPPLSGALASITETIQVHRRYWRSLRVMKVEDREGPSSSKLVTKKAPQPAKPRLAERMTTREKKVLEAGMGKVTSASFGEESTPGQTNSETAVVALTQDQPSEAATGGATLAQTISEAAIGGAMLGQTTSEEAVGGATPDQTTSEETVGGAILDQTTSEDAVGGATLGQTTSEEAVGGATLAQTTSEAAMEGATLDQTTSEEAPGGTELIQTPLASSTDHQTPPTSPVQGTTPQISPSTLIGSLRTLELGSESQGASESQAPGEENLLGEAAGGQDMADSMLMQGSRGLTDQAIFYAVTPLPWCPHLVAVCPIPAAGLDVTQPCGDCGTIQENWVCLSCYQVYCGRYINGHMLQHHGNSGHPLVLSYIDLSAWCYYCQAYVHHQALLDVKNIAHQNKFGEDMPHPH
The experiment in a line: biochemical.
Description: Inhibition of recombinant full length human N-terminal GST-tagged HDAC6 expressed in baculovirus infected sf9 insect cells pretreated with compound followed by Fluor de Lys deacetylase substrate addition by fluorescence method

Series [2] can be described thus: Stability in human plasma assessed as parent compound remaining at 100 uM after 4 hrs by LC-MS/MS analysis. Particulars: read-out: Stability; call rule not given here. It counts as ADME, cell-free.
Series [3] is described as follows: Stability in rat plasma assessed as parent compound remaining at 100 uM after 4 hrs by LC-MS/MS analysis. It counts as ADME, cell-free. Particulars: read-out: Stability.
Series [4] has as its system 697. The experiment in a line: Cytotoxicity against human 697 cells after 48 hrs by CellTiter 96 aqueous one solution assay. It counts as cell-based. Particulars: Homo sapiens, 697, 48 h.
A short description of series [5]: Selectivity ratio of IC50 for N-terminal Flag-tagged human HDAC10 (2 to 631 residues) expressed in baculovirus infected sf9 insect cells to IC50 for human N-terminal GST-tagged HDAC6 expressed in baculovirus infected sf9 insect cells.
Series [6] is described as follows: Selectivity ratio of IC50 for C-terminal His-tagged human HDAC9 (604 to 1066 residues) expressed in baculovirus infected sf9 insect cells to IC50 for human N-terminal GST-tagged HDAC6 expressed in baculovirus infected sf9 insect cells.
A short description of series [7]: Selectivity ratio of IC50 for N-terminal GST-tagged human HDAC7 (518 to end residues) expressed in baculovirus infected sf9 insect cells to IC50 for human N-terminal GST-tagged HDAC6 expressed in baculovirus infected sf9 insect cells.
The nature of series [8]: Selectivity ratio of IC50 for N-terminal His-tagged human HDAC11 expressed in baculovirus expression system to IC50 for human N-terminal GST-tagged HDAC6 expressed in baculovirus infected sf9 insect cells.
In series [9] the test system is PBMC. Briefly: Cytotoxicity against human PBMC cells after 72 hrs by CellTiter 96 aqueous one solution assay. It counts as cell-based.
A short description of series [10]: Selectivity ratio of IC50 for C-terminal His-tagged human HDAC8 expressed in baculovirus infected sf9 insect cells to IC50 for human N-terminal GST-tagged HDAC6 expressed in baculovirus infected sf9 insect cells.
The nature of series [11]: Selectivity ratio of IC50 for C-terminal GST-tagged human HDAC5 to IC50 for human N-terminal GST-tagged HDAC6 expressed in baculovirus infected sf9 insect cells.
A short description of series [12]: Stability in human liver S9 fraction assessed as parent compound remaining at 5 uM after 90 mins in presence of NADPH by LC-MS/MS analysis. It counts as ADME, subcellular. To be noted: read-out: Stability.
Series [13] has as its system Histone deacetylase. The experiment in a line: Inhibition of HDAC in human 697 cells assessed as increase in H3 acetylation at 1000 nM incubated for 16 hrs by ELISA. To be noted: human, 697, 16 h, 1 µM. It counts as cell-based. For orientation: ELISA stands for enzyme-linked immunosorbent assay.
Series [14] can be described thus: Selectivity ratio of IC50 for human HDAC4 expressed in baculovirus infected sf9 insect cells to IC50 for human N-terminal GST-tagged HDAC6 expressed in baculovirus infected sf9 insect cells.
A short description of series [15]: Stability in rat liver S9 fraction assessed as parent compound remaining at 5 uM after 90 mins in presence of NADPH by LC-MS/MS analysis. It counts as ADME, subcellular. To be noted: read-out: Stability.

In the case of `O=C(NO)c1ccc(Cn2nnnc2-c2ccccc2)cc1`, half-maximal inhibition in series [1] (IC50) was put at 9 nM. This lies in the single-digit nanomolar range.
Consider `CCCCN(Cc1ccc(C(=O)NO)cc1)C(=O)Nc1ccccc1` [NEXTURASTAT A], for which the remaining at 4 h, 100 µM turned out to be 100% in [2] and 40% in series [3]. The half-inhibitory concentration (IC50) (usually the midpoint of a concentration-inhibition curve) in series [4] is 401 nM.
In the case of `CN1CCc2c(c3ccccc3n2Cc2ccc(C(=O)NO)cc2)C1` [TUBASTATIN A], the remaining at 4 h, 100 µM came out at 98% in [2] and 38% in [3]. This compound also had an IC50 in [4] of 2010 nM.
In [1], `O=C(NO)c1ccc(-c2nnc(-c3ccccc3)o2)cc1` came in with an IC50 of 660 nM. This counts as sub-micromolar.
As to `O=C(NO)c1cc(F)c(Cc2nnc(-c3ccncc3)s2)c(F)c1`, the “Ratio IC50” value in [5] amounted to 507; in series [6], 44; in series [7] it was 77; in [8], 291; in series [10] it was 139; in series [11] it was 67. Also, in [14], the “Ratio IC50” value is 101. Moreover, the remaining at 4 h, 100 µM turned out to be 93% in [2] and 84% in [3]. For the same compound, the IC50 in series [9] and in [4] was greater than 1000 nM in each case. The figures for the remaining at […], 5 µM in series [12] and in series [15] were 68% and 32%, respectively. Moreover, the “inhibition (INH)” value in series [13] is on record as “Active”.
As to `Cn1c(Sc2c(F)cc(C(=O)NO)cc2F)nnc1-c1cccs1`, the “Ratio IC50” value in series [5] came out at 763; in [6], 55; in series [7], 61; in [8] it was 254; in [10], 21; in series [11], 171. The “Ratio IC50” value in series [14] is listed as 155. Further, the remaining at 4 h, 100 µM in series [2] stood at 99%; in [3], 87%. Also, the IC50 in series [9] and in [4] was greater than 1000 nM throughout. Further, the figures for the remaining at […], 5 µM in [12] and in series [15] were 83% and 71%, respectively. Besides, in [13], the “inhibition (INH)” value is “Active”.
In series [1], `Cc1cc(-c2nnc(Sc3c(F)c(F)c(C(=O)NO)c(F)c3F)n2C)nn1C` showed an IC50 of 2530 nM.
For `O=C(NO)c1ccc(Sc2nnc(-c3ccccc3)s2)cc1`, it took 6 nM to reach half-maximal inhibition in series [1] (IC50).
For `O=C(NO)c1cc(F)c(Cn2nnc(-c3ncccn3)n2)c(F)c1`, the remaining at 4 h, 100 µM in series [2] was 93%; in series [3], 78%. Further, the IC50 in series [9] and in series [4] was greater than 1000 nM throughout. Further, the figures for the remaining at […], 5 µM in series [12] and in series [15] were 89% and 96%, respectively.
The compound `O=C(NO)c1ccc(Cn2cccn2)cc1` registered an IC50 in [1] of 102 nM. This counts as sub-micromolar.
`O=C(NO)c1ccc(Cc2noc(-c3ccccc3)n2)cc1`: 6 nM corresponded to half-maximal inhibition in [1] (IC50).
For the compound `O=C(NO)c1ccc(Cc2nnc(-c3ccccc3)s2)cc1`, 16 nM corresponded to half-maximal inhibition in [1] (IC50).
Regarding `O=C(NO)c1ccc(Sc2ncc(-c3ccccc3)s2)cc1`, in series [1], the IC50 came out at 62 nM. This IC50 is about 3.9-fold higher than that of the compound before.
As to `Cc1cc(-c2nnc(Sc3ccc(C(=O)NO)c(F)c3)n2C)nn1C`, the midpoint of inhibition in series [1], the IC50, lay at 2240 nM.
`O=C(NO)c1cc(F)c(Cn2nnc(-c3ccccn3)n2)c(F)c1`: the “Ratio IC50” value in series [5] is 1463; in [6], 102; in series [7], 119; in series [8], 696; in series [10], 138; in [11], 141. In addition, the “Ratio IC50” value in series [14] stood at 139. For the same compound, the remaining at 4 h, 100 µM in [2] was 96%; in [3], 87%. Moreover, the IC50 in series [9] and in [4] was greater than 1000 nM each time. The remaining at […], 5 µM in series [12] came to 86%; in series [15], 97%.
Turning to `CCN(CC)Cc1ccc2cc(COC(=O)Nc3ccc(C(=O)NO)cc3)ccc2c1` [GIVINOSTAT], the remaining at 4 h, 100 µM in series [2] was determined as 97%; in [3] it was 72%. For the same compound, the IC50 in series [9] came out at 313 nM; in [4], 100 nM. Moreover, the remaining at […], 5 µM is 83% in [12] and 6% in series [15].
As for `Cn1c(Sc2c(F)cc(C(=O)NO)cc2F)nnc1-c1ccc(CN2CCCCC2)cc1`, the “Ratio IC50” value was found to be 814 in [5]; 36 in [6]; 83 in series [7]; 342 in series [8]; 32 in series [10]; 101 in series [11]. Further, the “Ratio IC50” value in series [14] is listed as 126. For the same compound, the remaining at 4 h, 100 µM in [2] was 90%; in series [3], 75%. The IC50 in [9] and in series [4] was greater than 1000 nM throughout. For the same compound, the remaining at […], 5 µM in series [12] worked out at 69%; in [15], 74%.
Regarding `Cn1c(Cc2ccc(C(=O)NO)cc2)nnc1-c1ccccc1`, in series [1], the IC50 is 17 nM.
For `O=C(NO)c1ccc(CC(=O)N(CCO)c2ccccc2)cc1`, the figures for the remaining at 4 h, 100 µM in series [2] and in [3] were 79% and 45%, respectively. The compound further returned an IC50 in [4] of 8330 nM.
In turn, `O=C(NO)c1ccc(Nc2nnc(-c3ccccc3)s2)cc1` displayed an IC50 in series [1] of 66 nM.
Compound `O=C(NO)c1ccc(Sc2nnc(-c3ccccc3)o2)cc1` showed an IC50 in [1] of 6 nM.
As to `O=C(NO)c1ccc(Cn2nnc(-c3ncccn3)n2)cc1`, the “Ratio IC50” value was found to be 111 in series [5]; 246 in series [6]; 146 in [7]; 103 in series [8]; 46 in [10]; 721 in series [11]. In addition, the “Ratio IC50” value in series [14] was 665. The remaining at 4 h, 100 µM came out at 76% in [2] and 99% in series [3]. The IC50 was greater than 1000 nM in [9], 7 nM in series [1] and greater than 1000 nM in series [4]. The remaining at […], 5 µM is 83% in series [12] and 99% in series [15].
Turning to `COc1ccc(CC(=O)N[C@@H](Cc2cscn2)C(=O)Nc2ccc(C(=O)NO)cc2)cc1OC`, the remaining at 4 h, 100 µM in [2] worked out at 100%; in series [3] it was 18%. Also, the IC50 in series [1] is 5 nM; in [4], greater than 10000 nM.
For the compound `O=C(NO)c1cnc(NC2(c3ccccc3)CC2)nc1`, the figures for the remaining at 4 h, 100 µM in series [2] and in series [3] were 100% and 12%, respectively. The IC50 in [4] came to 3390 nM.
In [1], `O=C(NO)c1ccc(Cc2nnc(-c3ccccc3)[nH]2)cc1` came in with an IC50 of 5 nM.
In turn, `Cc1csc(Nc2ccc(C(=O)NO)cc2)n1` yielded an IC50 in series [1] of 137 nM.
For the compound `O=C(CCCCCCNC(=O)c1cnc(N(c2ccccc2)c2ccccc2)nc1)NO` [RICOLINOSTAT], the remaining at 4 h, 100 µM in series [2] was 100%; in series [3], 91%. In series [4], this compound displayed an IC50 of 201 nM.

The values above are taken from ChEMBL document CHEMBL4414648, “Novel Benzohydroxamate-Based Potent and Selective Histone Deacetylase 6 (HDAC6) Inhibitors Bearing a Pentaheterocyclic Scaffold: Design, Synthesis, and Biological Evaluation” (J Med Chem, 2019).
